This note sets out measurements from ChEMBL document CHEMBL1125494, “A molecular modeling study of the interactions between the antiestrogen drug tamoxifen and several derivatives, and the calcium-binding protein calmodulin” (J Med Chem, 1992).

Molecules are shown by their SMILES.

A short description of this assay: Inhibition of calmodulin dependent cAMP phosphodiesterase.
One may read the IC50 as the midpoint of a concentration-inhibition curve. Low values mean greater potency, high ones weaker potency. For `CCC(=C(c1ccc(O)cc1)c1ccc(OCCN(C)C)cc1)c1ccccc1`, the IC50 is 19 µM.
The result for `CC/C(=C(\c1ccccc1)c1ccc(OCCN(CC)CC)cc1)c1ccccc1` reads 10 µM; that for `CC/C(=C(\c1ccccc1)c1ccc(OCCN2CCNCC2)cc1)c1ccccc1`, > 50 µM; that for `CC/C(=C(\c1ccc(I)cc1)c1ccc(OCCN(C)C)cc1)c1ccccc1`, 2.3 µM.
The result for `C/C(=C(\c1ccccc1)c1ccc(OCCN(C)C)cc1)c1ccccc1` reads 20 µM; that for `CC/C(=C(\c1ccccc1)c1ccc(OCCN(C)C)cc1)c1ccccc1` [TAMOXIFEN], 6.75 µM.
